In this assay the target is T1, mutant CFTR (Homo sapiens, UniProt P13569, DEL508-508).
T1 construct: expressed in transfected cells
Put plainly: Fluorescence (HS-YFP) assay for CFTR activity, corrector assay. Type of assay: cell-based. Conditions: CFBE41o- and FRT cells with stable expression of mutant CFTR, 24 h compound treatment. In short, it runs like this: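 Corrector activity: 24 h compound treatment of HS-YFP/mutant-CFTR CFBE41o- or FRT cells, followed by 30 min forskolin 20 μM + genistein 50 μM at 37° C. Iodide influx (100 mM final) was tracked as fluorescence quenching, with dF/dt extrapolated by exponential fitting; EC50 values derived.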

SMILES strings stand for the structures. pEC50: −log10 of the molar value.

T1 sequence (P13569 with tags, fused parts or gaps DEL508-508): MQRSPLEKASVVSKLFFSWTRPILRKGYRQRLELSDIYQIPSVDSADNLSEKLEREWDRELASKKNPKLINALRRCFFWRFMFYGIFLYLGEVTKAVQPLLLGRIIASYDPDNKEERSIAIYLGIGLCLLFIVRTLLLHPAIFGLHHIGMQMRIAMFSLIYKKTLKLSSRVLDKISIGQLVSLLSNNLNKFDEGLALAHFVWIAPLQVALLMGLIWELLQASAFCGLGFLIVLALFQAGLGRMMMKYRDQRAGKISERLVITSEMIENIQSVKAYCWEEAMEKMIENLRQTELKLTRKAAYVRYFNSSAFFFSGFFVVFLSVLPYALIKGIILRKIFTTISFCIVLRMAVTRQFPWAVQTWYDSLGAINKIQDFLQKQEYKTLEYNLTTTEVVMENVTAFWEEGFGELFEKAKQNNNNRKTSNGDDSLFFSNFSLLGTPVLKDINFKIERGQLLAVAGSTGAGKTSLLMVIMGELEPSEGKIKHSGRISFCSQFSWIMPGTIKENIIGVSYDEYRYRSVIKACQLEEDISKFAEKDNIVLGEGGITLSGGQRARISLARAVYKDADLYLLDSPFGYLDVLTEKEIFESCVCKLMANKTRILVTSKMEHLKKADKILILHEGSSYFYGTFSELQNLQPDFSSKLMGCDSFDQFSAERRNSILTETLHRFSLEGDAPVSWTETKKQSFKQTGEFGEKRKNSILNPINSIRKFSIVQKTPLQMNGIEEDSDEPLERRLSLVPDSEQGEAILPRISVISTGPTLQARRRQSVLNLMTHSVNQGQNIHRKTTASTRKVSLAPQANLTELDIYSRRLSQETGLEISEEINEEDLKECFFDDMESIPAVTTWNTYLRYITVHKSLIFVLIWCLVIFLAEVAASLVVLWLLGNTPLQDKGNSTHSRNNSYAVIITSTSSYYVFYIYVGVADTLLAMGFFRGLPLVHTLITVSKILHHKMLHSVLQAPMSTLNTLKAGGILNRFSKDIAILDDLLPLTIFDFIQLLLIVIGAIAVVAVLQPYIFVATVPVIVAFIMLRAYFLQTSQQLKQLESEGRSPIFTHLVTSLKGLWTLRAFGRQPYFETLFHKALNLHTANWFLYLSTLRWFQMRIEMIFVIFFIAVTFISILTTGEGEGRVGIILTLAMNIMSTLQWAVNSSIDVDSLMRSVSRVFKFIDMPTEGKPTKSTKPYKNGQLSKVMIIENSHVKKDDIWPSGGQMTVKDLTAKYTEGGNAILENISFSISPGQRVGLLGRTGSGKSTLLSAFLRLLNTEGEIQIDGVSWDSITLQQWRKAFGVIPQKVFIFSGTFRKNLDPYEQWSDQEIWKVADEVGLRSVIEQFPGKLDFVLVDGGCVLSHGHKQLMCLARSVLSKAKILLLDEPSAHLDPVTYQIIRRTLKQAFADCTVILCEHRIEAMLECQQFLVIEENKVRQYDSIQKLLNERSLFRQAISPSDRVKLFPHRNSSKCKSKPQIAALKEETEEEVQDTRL

Broadly, the pEC50 is the negative decadic logarithm of the EC50, by convention in mol/L. For `CCOC(=O)c1cc(C(F)(F)F)nn1-c1cccc(C(=O)N(C)c2ccc3c(c2)OCO3)c1` [compound 130, Ethyl 2-[3-[1,3-benzodioxol-5-yl(methyl)carbamoyl]phenyl]-5-(trifluoromethyl)pyrazole-3-carboxylate], the pEC50 is more than 6.00.
Consider `CC(C)Oc1cc(C(F)(F)F)nn1-c1cccc(C(=O)N(C)c2ccc3c(c2)OCO3)c1` [compound 131, N-(1,3-benzodioxol-5-yl)-3-[5-isopropoxy-3-(trifluoromethyl)pyrazol-1-yl]-N-methyl-benzamide], for which the pEC50 was more than 6.00.
To `CN(C(=O)c1cccc(-n2nc(C(F)(F)F)cc2OCc2ccccc2)c1)c1ccc2c(c1)OCO2` [compound 132, N-(1,3-benzodioxol-5-yl)-3-[5-benzyloxy-3-(trifluoromethyl)pyrazol-1-yl]-N-methyl-benzamide] belongs more than 6.00; to `CN(C(=O)c1cccc(-n2nc(C(F)(F)F)cc2OCCc2ccccc2)c1)c1ccc2c(c1)OCO2` [compound 133, N-(1,3-Benzodioxol-5-yl)-N-methyl-3-[5-phenethyloxy-3-(trifluoromethyl)pyrazol-1-yl]benzamide], more than 6.00.
In the case of `CN(C(=O)c1cccc(-n2nc(C(F)(F)F)c(Cl)c2OCc2ccccc2)c1)c1ccc2c(c1)OCO2` [compound 134, N-(1,3-Benzodioxol-5-yl)-3-[5-benzyloxy-4-chloro-3-(trifluoromethyl)pyrazol-1-yl]-N-methyl-benzamide], the pEC50 is more than 6.00.
Regarding `CCN(C(=O)c1cccc(-n2nc(C(F)(F)F)c(Cl)c2C2CC2)c1)c1ccc2nc(C)oc2c1` [compound 135, 3-[4-Chloro-5-cyclopropyl-3-(trifluoromethyl)pyrazol-1-yl]-N-ethyl-N-(2-methyl-1,3-benzoxazol-6-yl)benzamide], the pEC50 was more than 6.00.
For the compound `Cc1nc2ccc(N(C)C(=O)c3cccc(-n4nc(C(F)(F)F)c(Cl)c4C4CC4)c3)cc2o1` [compound 137, 3-[4-Chloro-5-cyclopropyl-3-(trifluoromethyl)pyrazol-1-yl]-N-methyl-N-(2-methyl-3-benzoxazol-6-yl)benzamide], the pEC50 is more than 6.00.
With `[2H]C([2H])([2H])N(C(=O)c1cccc(-n2nc(C(F)(F)F)c(Cl)c2C2CC2)c1)c1ccc2nc(C)oc2c1` [compound 138, 3-[4-Chloro-5-cyclopropyl-3-(trifluoromethyl)pyrazol-1-yl]-N-(2-methyl-1,3-benzoxazol-6-yl)-N-(trideuteriomethyl)benzamide], the pEC50 is more than 6.00.
In the case of `Cc1nc2cc(Cl)c(N(C)C(=O)c3cccc(-n4nc(C(F)(F)F)c(Cl)c4C4CC4)c3)cc2o1` [compound 139, 3-[4-Chloro-5-cyclopropyl-3-(trifluoromethyl)pyrazol-1-yl]-N-(5-chloro-2-methyl-1,3-benzoxazol-6-yl)-N-methyl-benzamide], the pEC50 was more than 6.00.
The figure for `CCOC(=O)c1cccc(OCc2c(Cl)c(C)nn2-c2cccc(C(=O)N(C)c3ccc4c(c3)OCO4)c2)c1` [compound 140, Ethyl 3-[[2-[3-[1,3-benzodioxol-5-yl(methyl)carbamoyl]phenyl]-4-chloro-5-methyl-pyrazol-3-yl]methoxy]benzoate] is more than 6.00; for `CC(C)Oc1c(Cl)c(C(F)(F)F)nn1-c1cccc(C(=O)N(C)c2ccc3c(c2)OCO3)c1` [compound 142, N-(1,3-Benzodioxol-5-yl)-3-[4-chloro-5-isopropoxy-3-(trifluoromethyl)pyrazol-1-yl]-N-methyl-benzamide] it is more than 6.00.
`Cc1nn(-c2cccc(C(=O)N(C)c3ccc4c(c3)OCO4)c2)c(COc2cccc(C(=O)O)c2)c1Cl` [compound 143, 3-[[2-[3-[1,3-Benzodioxol-5-yl(methyl)carbamoyl]phenyl]-4-chloro-5-methyl-pyrazol-3-yl]methoxy]benzoic acid]: the pEC50 is 5.70 to 6.00.
Consider `CN(C(=O)c1cccc(-n2nc(C(F)(F)F)cc2-c2ccco2)c1)c1ccc2c(c1)OCO2` [compound 147, N-(1,3-Benzodioxol-5-yl)-3-[5-(2-furyl)-3-(trifluoromethyl)pyrazol-1-yl]-N-methyl-benzamide], for which the pEC50 is more than 6.00.
As for `Cc1nc2ccc(N(C)C(=O)c3cccc(-n4nc(C(F)(F)F)c(Cl)c4C)c3)cc2s1` [compound 149, 3-[4-Chloro-5-methyl-3-(trifluoromethyl)pyrazol-1-yl]-N-methyl-N-(2-methyl-1,3-benzothiazol-6-yl)benzamide], the pEC50 was 5.70 to 6.00.
As for `CCOC(=O)c1ccc(OCc2c(Cl)c(C(F)(F)F)nn2-c2cccc(C(=O)N(C)c3ccc4c(c3)OCO4)c2)cc1` [compound 150, Ethyl 4-[[2-[3-[1,3-benzodioxol-5-yl(methyl)carbamoyl]phenyl]-4-chloro-5-(trifluoromethyl)pyrazol-3-yl]methoxy]benzoate], the pEC50 is more than 6.00.
In the case of `CN(C(=O)c1cccc(-n2nc(C(F)(F)F)c(Cl)c2COc2ccc(C(=O)O)cc2)c1)c1ccc2c(c1)OCO2` [compound 151, 4-[[2-[3-[1,3-benzodioxol-5-yl(methyl)carbamoyl]phenyl]-4-chloro-5-(trifluoromethyl)pyrazol-3-yl]methoxy]benzoic acid], the pEC50 was more than 6.00.
The figure for `COC(=O)c1ccc(COc2cc(C(F)(F)F)nn2-c2cccc(C(=O)N(C)c3ccc4c(c3)OCO4)c2)cc1` [compound 152, Methyl-4-[[2-[3-[1,3-benzodioxol-5-yl(methyl)carbamoyl]phenyl]-5-(trifluoromethyl)pyrazol-3-yl]oxymethyl]benzoate] is more than 6.00; for `Cc1nc2cc(F)c(N(C)C(=O)c3cccc(-n4nc(C(F)(F)F)c(Cl)c4C)c3)cc2o1` [compound 154, 3-[4-Chloro-5-methyl-3-(trifluoromethyl)pyrazol-1-yl]-N-(5-fluoro-2-methyl-1,3-benzoxazol-6-yl)-N-methyl-benzamide] it is more than 6.00; for `COC(=O)c1ccc(COc2c(Cl)c(C(F)(F)F)nn2-c2cccc(C(=O)N(C)c3ccc4c(c3)OCO4)c2)cc1` [compound 155, Methyl 4-[[2-[3-[1,3-benzodioxol-5-yl(methyl)carbamoyl]phenyl]-4-chloro-5-(trifluoromethyl)pyrazol-3-yl]oxymethyl]benzoate] it is more than 6.00.
With `COC(=O)c1ccc(COc2c(Cl)c(C(F)(F)F)nn2-c2cccc(C(=O)N(C)c3cc4c(cc3Cl)OCO4)c2)cc1` [compound 156, Methyl 4-[[4-chloro-2-[3-[(6-chloro-1,3-benzodioxol-5-yl)-methyl-carbamoyl]phenyl]-5-(trifluoromethyl)pyrazol-3-yl]oxymethyl]benzoate], the pEC50 is more than 6.00.
On to `CN(C(=O)c1cccc(-n2nc(C(F)(F)F)c(Cl)c2OC2CCN(C(=O)OC(C)(C)C)CC2)c1)c1ccc2c(c1)OCO2` [compound 157, Tert-butyl 4-[2-[3-[1,3-benzodioxol-5-yl(methyl)carbamoyl]phenyl]-4-chloro-5-(trifluoromethyl)pyrazol-3-yl]oxypiperidine-1-carboxylate], for which the pEC50 is more than 6.00.
As for `CCOc1cc(C(F)(F)F)nn1-c1cccc(C(=O)N(C)c2ccc3c(c2)OCO3)c1` [compound 158, N-(1,3-benzodioxol-5-yl)-3-[5-ethoxy-3-(trifluoromethyl)pyrazol-1-yl]-N-methyl-benzamide], the pEC50 is more than 6.00.

The record behind these values is US12492193B2, “Pyrazole derivatives for the treatment of cystic fibrosis” (Fondazione Istituto Italiano Di Tecnologia, priority 2017, dated 2025).
